What was measured:
human recombinant GR = biological target: T1, human recombinant GR (Homo sapiens, UniProt P04150); test: Human Glucocorticoid Receptor (GR) Fluorescence Polarisation (FP) Binding Assay; settings: Ki from IC50 by ligand depletion correction; displacement of Fluorome GS Red
T1 construct: purchased PanVera P2812
T1 sequence (P04150 1-777): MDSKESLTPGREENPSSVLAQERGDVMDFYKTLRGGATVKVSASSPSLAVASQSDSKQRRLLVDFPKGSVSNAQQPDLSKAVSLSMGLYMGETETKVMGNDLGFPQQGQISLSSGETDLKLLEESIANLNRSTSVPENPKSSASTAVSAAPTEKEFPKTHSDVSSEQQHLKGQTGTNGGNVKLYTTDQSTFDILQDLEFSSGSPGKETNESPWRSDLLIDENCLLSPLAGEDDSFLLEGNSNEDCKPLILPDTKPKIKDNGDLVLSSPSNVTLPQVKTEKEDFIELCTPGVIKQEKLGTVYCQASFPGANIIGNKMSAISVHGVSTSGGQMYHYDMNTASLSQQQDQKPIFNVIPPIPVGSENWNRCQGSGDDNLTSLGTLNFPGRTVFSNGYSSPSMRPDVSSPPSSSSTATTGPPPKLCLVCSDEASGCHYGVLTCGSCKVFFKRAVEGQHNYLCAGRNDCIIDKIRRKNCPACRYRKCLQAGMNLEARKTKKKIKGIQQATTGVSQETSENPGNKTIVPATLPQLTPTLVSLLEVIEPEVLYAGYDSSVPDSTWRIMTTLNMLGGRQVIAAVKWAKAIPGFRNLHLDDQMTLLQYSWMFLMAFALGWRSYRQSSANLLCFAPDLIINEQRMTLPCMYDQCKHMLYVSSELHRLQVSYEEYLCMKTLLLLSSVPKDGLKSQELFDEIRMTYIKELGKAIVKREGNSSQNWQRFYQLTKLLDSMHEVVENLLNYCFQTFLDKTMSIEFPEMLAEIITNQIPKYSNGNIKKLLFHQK
Protocol: The following is a description of a FP assay for measuring compound inhibition of labelled glucocorticoid binding to the human recombinant GR.
The binding affinity of test compounds was determined using a FP binding assay using human recombinant GR (PanVera P2812) and a fluorescent labelled glucocorticoid ligand (Fluorome GS Red) (PanVera P2894). The presence of inhibitors prevents the formation of a GS Red/GR complex resulting in a decrease in the measured polarisation value. The change in polarisation value in the presence of test compounds is used to calculate the binding affinity of the compound for GR.
This assay was performed in 384 well, black, round-bottom, polypropylene micro titre plates in a final volume of 20 μl. The assay contained 5 μl 1 nM GR (final concentration), 5 μl 0.5 nM Fluorome GS Red (final concentration) in the presence of 10p test compounds. Positive control wells (high polarisation) receive, 10 μl 2% (v:v) DMSO vehicle (1% (v/v) final concentration)+5 μl 1 nM GR and 5 μl 0.5 nM Fluorome GS Red. […] Assay blank background wells (used for normalisation) receive 15 μl 1×GS screening buffer+5 μl GR.
For the IC50 determination (concentration of compound that displaces 50% of the bound GS Red), compounds were tested at eight different concentrations in duplicate in two independently performed experiments. Compounds were prepared as solubilised solids at 10 mM in DMSO. On the day of assay, an 8 point half-log serial dilution (55 μl DMSO+25 μl compound solution) was prepared. A 1:50 dilution (1 μl compound solution+49 μl 1×GR screening buffer) was prepared for each compound. The compounds were prepared at 2× final assay concentration.
The plates were mixed and incubated for 4 hour at room temperature. FP was measured using an Envision Excite plate reader with 535 nm excitation and 590 nm emission interference filters.
Milli-polarisation (mP) values were calculated using the below equation: mP=1000*(S−G*P)/(S+G*P) where S and P are assay blank background subtracted fluorescence units, G=G-factor (1.07).
Compound IC50 values were calculated by plotting a [compound] v. % inhibition curve and fitting the data to a 4-parameter logistic fit equation.
10×GR screening buffer (100 mM potassium phosphate pH 7.4, 200 mM Na2MoO4, 1 mM EDTA, 20% (v/v) DMSO). To prepare 1×GR screening buffer, combine 1 ml 10×GR screening buffer (PanVera P2814)+1 ml stabilising peptide (PanVera P2815)+7.95 ml 4° C. MQ water. Add 50p 1M DTT, vortex and place on ice until use.

glucocorticoid receptor = biological target: T2, glucocorticoid receptor (Homo sapiens, UniProt P04150); test: HepG2 Tyrosine Aminotransferase (TAT) Assay; assay type: cell-based
T2 construct: endogenous in cells; host or cells: HepG2
T2 sequence (P04150 1-777): T1 sequence (P04150 1-777)
Protocol: Glucocorticoid mediated activation of TAT occurs by transactivation of glucocorticoid response elements in the TAT promoter by glucocorticoid receptor-agonist complex.
HepG2 cells were cultured using MEME media supplemented with 10% (v/v) foetal bovine serum; 2 mM L-glutamine and 1% (v/v) NEAA at 37° C., 5%/95% (v/v) CO2/air.
Compounds were serially half log diluted in 100% (v/v) dimethylsulphoxide from a 10 mM stock.
HepG2 cells were then lysed with 30 μl of cell lysis buffer containing a protease inhibitor cocktail for 15 minutes at 4° C. […] After 2 hours incubation at 37° C. the reaction was terminated by the addition of 15 μl of 10 M aqueous potassium hydroxide solution, and the plates incubated for a further 30 minutes at 37° C.
[compound] and fitting the data to a 4 parameter logistic equation.

Ki (human recombinant GR) [nM] | Ki (glucocorticoid receptor) [nM] | Structure (SMILES)
< 0.5 | < 20 | CCCn1cc(S(=O)(=O)N2CC[C@H]3Cc4c(cnn4-c4ccc(F)cc4)C[C@]3(C(=O)c3ccccn3)C2)cn1 [Example 2B, ((4aR,8aS)-1-(4-fluorophenyl)-6-((1-propyl-1H-pyrazol-4-yl)sulfonyl)-4,4a,5,6,7,8,8a,9-octahydro-1H-pyrazolo[3,4-g]isoquinolin-4a-yl)(pyridin-2-yl)methanone]
< 0.5 | < 20 | CCCn1cc(S(=O)(=O)N2CC[C@H]3Cc4c(cnn4-c4ccc(F)cc4)C[C@]3(C(=O)c3nccs3)C2)cn1 [Example 2E, ((4aR,8aS)-1-(4-fluorophenyl)-6-((1-propyl-1H-pyrazol-4-yl)sulfonyl)-4,4a,5,6,7,8,8a,9-octahydro-1H-pyrazolo[3,4-g]isoquinolin-4a-yl)(thiazol-2-yl)methanone]
> 1 | 20 to 100 | O=C(c1ccccn1)[C@]12Cc3cnn(-c4ccc(F)cc4)c3C[C@@H]1CCN(S(=O)(=O)c1cccc(F)c1)C2 [Example 2F, ((4aR,8aS)-1-(4-fluorophenyl)-6-((3-fluorophenyl)sulfonyl)-4,4a,5,6,7,8,8a,9-octahydro-1H-pyrazolo[3,4-g]isoquinolin-4a-yl)(pyridin-2-yl)methanone]
> 1 | 20 to 100 | Cn1cc(S(=O)(=O)N2CC[C@H]3Cc4c(cnn4-c4ccc(F)cc4)C[C@]3(C(=O)c3cc(C(F)(F)F)ccn3)C2)cn1 [Example 2H, ((4aR,8aS)-1-(4-fluorophenyl)-6-((1-methyl-1H-pyrazol-4-yl)sulfonyl)-4,4a,5,6,7,8,8a,9-octahydro-1H-pyrazolo[3,4-g]isoquinolin-4a-yl)(4-(trifluoromethyl)pyridin-2-yl)methanone]
> 1 | 20 to 100 | CCn1nccc1S(=O)(=O)N1CC[C@H]2Cc3c(cnn3-c3ccc(F)cc3)C[C@]2(C(=O)c2cc(C(F)(F)F)ccn2)C1 [Example 2L, ((4aR,8aS)-6-((1-ethyl-1H-pyrazol-5-yl)sulfonyl)-1-(4-fluorophenyl)-4,4a,5,6,7,8,8a,9-octahydro-1H-pyrazolo[3,4-g]isoquinolin-4a-yl)(4-(trifluoromethyl)pyridin-2-yl)methanone]
> 1 | 20 to 100 | O=C(c1nccs1)[C@]12Cc3cnn(-c4ccc(F)cc4)c3C[C@@H]1CCN(S(=O)(=O)c1ccc(C(F)(F)F)cc1)C2 [Example 2M, ((4aR,8aS)-1-(4-fluorophenyl)-6-((4-(trifluoromethyl)phenyl)sulfonyl)-4,4a,5,6,7,8,8a,9-octahydro-1H-pyrazolo[3,4-g]isoquinolin-4a-yl)(thiazol-2-yl)methanone]
< 0.5 | < 20 | CC(C)n1ncc(S(=O)(=O)N2CC[C@H]3Cc4c(cnn4-c4ccc(F)cc4)C[C@]3(C(=O)c3ccccn3)C2)n1 [Example 2N, ((4aR,8aS)-1-(4-fluorophenyl)-6-((2-isopropyl-2H-1,2,3-triazol-4-yl)sulfonyl)-4,4a,5,6,7,8,8a,9-octahydro-1H-pyrazolo[3,4-g]isoquinolin-4a-yl)(pyridin-2-yl)methanone]

Further lines, the compound ahead of its results:

Structure (SMILES) | Ki (human recombinant GR) [nM] | Ki (glucocorticoid receptor) [nM]
Cn1ncc(S(=O)(=O)N2CC[C@H]3Cc4c(cnn4-c4ccc(F)cc4)C[C@]3(C(=O)c3cc(C(F)(F)F)ccn3)C2)n1 [Example 2C, ((4aR,8aS)-1-(4-fluorophenyl)-6-((2-methyl-2H-1,2,3-triazol-4-yl)sulfonyl)-4,4a,5,6,7,8,8a,9-octahydro-1H-pyrazolo[3,4-g]isoquinolin-4a-yl)(4-(trifluoromethyl)pyridin-2-yl)methanone] | 0.5 to 1 | < 20
CCCn1cc(S(=O)(=O)N2CC[C@H]3Cc4c(cnn4-c4ccc(F)cc4)C[C@]3(C(=O)c3cc(C(F)(F)F)ccn3)C2)cn1 [Example 2D, ((4aR,8aS)-1-(4-fluorophenyl)-6-((1-propyl-1H-pyrazol-4-yl)sulfonyl)-4,4a,5,6,7,8,8a,9-octahydro-1H-pyrazolo[3,4-g]isoquinolin-4a-yl)(4-(trifluoromethyl)pyridin-2-yl)methanone] | < 0.5 | < 20
O=C(c1ccccn1)[C@]12Cc3cnn(-c4ccc(F)cc4)c3C[C@@H]1CCN(S(=O)(=O)c1cccc(C(F)(F)F)c1)C2 [Example 2G, ((4aR,8aS)-1-(4-fluorophenyl)-6-((3-(trifluoromethyl)phenyl)sulfonyl)-4,4a,5,6,7,8,8a,9-octahydro-1H-pyrazolo[3,4-g]isoquinolin-4a-yl)(pyridin-2-yl)methanone] | > 1 | 20 to 100
Cn1ccc(S(=O)(=O)N2CC[C@H]3Cc4c(cnn4-c4ccc(F)cc4)C[C@]3(C(=O)c3cc(C(F)(F)F)ccn3)C2)n1 [Example 2I, ((4aR,8aS)-1-(4-fluorophenyl)-6-((1-methyl-1H-pyrazol-3-yl)sulfonyl)-4,4a,5,6,7,8,8a,9-octahydro-1H-pyrazolo[3,4-g]isoquinolin-4a-yl)(4-(trifluoromethyl)pyridin-2-yl)methanone] | 0.5 to 1 | 20 to 100
Cn1nccc1S(=O)(=O)N1CC[C@H]2Cc3c(cnn3-c3ccc(F)cc3)C[C@]2(C(=O)c2cc(C(F)(F)F)ccn2)C1 [Example 2J, ((4aR,8aS)-1-(4-fluorophenyl)-6-((1-methyl-1H-pyrazol-5-yl)sulfonyl)-4,4a,5,6,7,8,8a,9-octahydro-1H-pyrazolo[3,4-g]isoquinolin-4a-yl)(4-(trifluoromethyl)pyridin-2-yl)methanone] | > 1 | 20 to 100
CCn1cc(S(=O)(=O)N2CC[C@H]3Cc4c(cnn4-c4ccc(F)cc4)C[C@]3(C(=O)c3cc(C(F)(F)F)ccn3)C2)cn1 [Example 2K, ((4aR,8aS)-6-((1-ethyl-1H-pyrazol-4-yl)sulfonyl)-1-(4-fluorophenyl)-4,4a,5,6,7,8,8a,9-octahydro-1H-pyrazolo[3,4-g]isoquinolin-4a-yl)(4-(trifluoromethyl)pyridin-2-yl)methanone] | 0.5 to 1 | 20 to 100
CCn1ncc(S(=O)(=O)N2CC[C@H]3Cc4c(cnn4-c4ccc(F)cc4)C[C@]3(C(=O)c3cc(C(F)(F)F)ccn3)C2)n1 [Example 2O, ((4aR,8aS)-6-((2-ethyl-2H-1,2,3-triazol-4-yl)sulfonyl)-1-(4-fluorophenyl)-4,4a,5,6,7,8,8a,9-octahydro-1H-pyrazolo[3,4-g]isoquinolin-4a-yl)(4-(trifluoromethyl)pyridin-2-yl)methanone] | 0.5 to 1 | < 20

From patent US12139486B2, “Octahydro fused azadecalin glucocorticoid receptor modulators” (Corcept Therapeutics, Inc., priority 2013, dated 2024)
